In patent US8765982B2, “Synergistic anticoagulant composition” (priority 2009, dated 2014):
Where “and” joins values, the source holds several entries; their conditions need not be identical. Equal values may be shown once.

Tests used:
[1] = test system: blood clotting; assay: Rat feeding study: overall effect on blood clotting and on the anticoagulant activity of warfarin; assay type: in vivo, Sprague-Dawley rats; settings: rats; for effect on blood clotting time and levels of clotting factors, compound alone (in words): without warfarin, all three doses; for effect on the activity of warfarin (in words): 10 days of co-administration with warfarin
Source text: The containers were modified to prevent spillage. Rats were provided with water ad libitum.
Thus diets were constructed at 0.1 mpk/d. 1 mpk/d and 10 mpk/d.
Control to evaluate potentiation or diminution of warfarin effect.

[2] = Rat feeding study: toxicity control (LDH, AST, ALT, Alkaline Phosphatase, creatinine in plasma and serum); settings: rats, in feed
Source text: (§1) Male, albino, Sprague-Dawley rats (n=100) weighing 150-175 g were placed in quarantine for 1 week and then housed in individual cages. To determine food consumption, rat chow in containers was weighed at the beginning and end of the day to determine the weight of the food consumed by each animal. The containers were modified to prevent spillage. Rats were provided with water ad libitum. The chow was composed of rolled oats, sugar and peanut oil (92:4:4) (w:w:w) plus a standard vitamin/mineral mix.
(§2) Administration of anticoagulant was accomplished by uniformly dispersing the compound in the peanut oil used in the chow. […] […] Actual concentration of the drug to be applied will be based on the average food consumption determined for the rats.
(§3) Groups of rats were established as follows for each UWEC-K compound:
(§4) • A. Diet (Negative) controls: no anticoagulant additive to food • B. Positive controls: food treated with warfarin at LD50 concentration for a rat weighing 180 g • C. Control to evaluate potentiation or diminution of warfarin effect. […] The groups will be repeated for each of the two compounds. Four animals in each group were anaesthetized at 96 hours, and exsanguinated by cardiac puncture. Prior to exsanguination each animal was anesthetized by the intraperitoneal injection of 50 mg/kg of sodium pentothal. Blood was collected in 3.2% citrate in pediatric tubes and tested for prothrombin time and active coagulation factors VII and X. Factor V will also be tested as a marker of potential hepatic toxicity. […] Animals were monitored twice daily and any animals found in apparent distress with be immediately sacrificed as above.

[3] = test system: clotting factor VII; assay: Rat feeding study: level of active coagulation factor VII; assay type: in vivo, Sprague-Dawley rats; settings: rats; for VII %: in feed
Source text: as §1, §2, §3, §4

[4] = test system: clotting factor X; assay: Rat feeding study: level of active coagulation factor X; assay type: in vivo, Sprague-Dawley rats; settings: rats; for X %: in feed
Source text: as §1, §2, §3, §4

[5] = test system: blood clotting; assay: Rat feeding study: prothrombin time; assay type: in vivo, Sprague-Dawley rats; parameters: Pro Time: unit not given beside the values; settings: rats; for Pro Time: in feed
Source text: as §1, §2, §3, §4

[6] = test system: blood clotting; settings: 0.25 mg/kg, rats of approximately 200 gm BW; cited from earlier work
[7] = test system: rat; settings: for 5 days; cited from earlier work
[8] = 10 days, co-administered with warfarin

In the case of `CC(=O)Oc1c2c(c(OC(C)=O)c3ccccc13)[C@H]1C=C[C@@H]2C1` [UWEC-K1], the “effect on blood clotting time and levels of clotting factors, compound alone (in words)” value (from here on “effect on blood clotting time and levels”) ([1]; 4 days) is reported as “do not differ significantly from control”, the “effect on the activity of warfarin (in words)” value [1] is reported as “significantly enhance the effect of warfarin” and the “effect on blood clotting time and levels” value ([1]; 10 days) is reported as “do not differ significantly from control”. The ALT ([2]; 4 days, 0.025 mpk) was 37.67, the AST ([2]; 4 days, 0.025 mpk) was 121.00 and the “Alk Phos” value ([2]; 4 days, 0.025 mpk) was 170.67. The Creat. ([2]; 4 days, 0.025 mpk) was 0.15, the LDH ([2]; 4 days, 0.025 mpk) was 1075.33 and the ALT ([2]; 4 days, 0.25 mpk) was 41.75. For the same compound, the AST ([2]; 4 days, 0.25 mpk) was 152.75, the “Alk Phos” value ([2]; 4 days, 0.25 mpk) was 245.75 and the Creat. ([2]; 4 days, 0.25 mpk) was 0.10. The LDH ([2]; 4 days, 0.25 mpk) was 1168.00, the ALT ([2]; 4 days, 2.5 mpk) was 39.00 and the AST ([2]; 4 days, 2.5 mpk) was 125.67. For the same compound, the “Alk Phos” value ([2]; 4 days, 2.5 mpk) was 230.67, the Creat. ([2]; 4 days, 2.5 mpk) was 0.10 and the LDH ([2]; 4 days, 2.5 mpk) was 1304.67. The ALT ([2]; 10 days, 0.025 mpk) was 49.33, the AST ([2]; 10 days, 0.025 mpk) was 134.67 and the “Alk Phos” value ([2]; 10 days, 0.025 mpk) was 252.17. For the same compound, the Creat. ([2]; 10 days, 0.025 mpk) was 0.13, the LDH ([2]; 10 days, 0.025 mpk) was 1697.17 and the ALT ([2]; 10 days, 0.25 mpk) was 48.33. The AST ([2]; 10 days, 0.25 mpk) was 121.33, the “Alk Phos” value ([2]; 10 days, 0.25 mpk) was 283.50 and the Creat. ([2]; 10 days, 0.25 mpk) was 0.15. For the same compound, the LDH ([2]; 10 days, 0.25 mpk) was 1330.33, the ALT ([2]; 10 days, 2.5 mpk) was 49.33 and the AST ([2]; 10 days, 2.5 mpk) was 124.67. The “Alk Phos” value ([2]; 10 days, 2.5 mpk) was 264.00, the Creat. ([2]; 10 days, 2.5 mpk) was 0.15 and the LDH ([2]; 10 days, 2.5 mpk) was 1663.83. It also gave a VII % ([3]; 4 days, 0.025 mpk) of 346.75%, a VII % ([3]; 4 days, 0.25 mpk) of 351.33% and a VII % ([3]; 4 days, 2.5 mpk) of 370.75%. For the same compound, the VII % ([3]; 10 days, 0.025 mpk) was 364.00%, the VII % ([3]; 10 days, 0.25 mpk) was 304.67% and the VII % ([3]; 10 days, 2.5 mpk) was 286.83%. It also gave a X % ([4]; 4 days, 0.025 mpk) of 74.50%, a X % ([4]; 4 days, 0.25 mpk) of 65.33% and a X % ([4]; 4 days, 2.5 mpk) of 64.25%. The X % ([4]; 10 days, 0.025 mpk) was 68.00%, the X % ([4]; 10 days, 0.25 mpk) was 61.17% and the X % ([4]; 10 days, 2.5 mpk) was 61.00%. The “Pro Time” value ([5]; 4 days, 0.025 mpk) was 11.18, the “Pro Time” value ([5]; 4 days, 0.25 mpk) was 11.60 and the “Pro Time” value ([5]; 4 days, 2.5 mpk) was 11.78. The “Pro Time” value ([5]; 10 days, 0.025 mpk) was 11.37, the “Pro Time” value ([5]; 10 days, 0.25 mpk) was 11.72 and the “Pro Time” value ([5]; 10 days, 2.5 mpk) was 11.63.
With `CC(=O)Oc1c2c(c(OC(C)=O)c3ccccc13)[C@@H]1C[C@H]2C2OC21` (stereo partly drawn) [UWEC-K2] the “effect on blood clotting time and levels” value ([1]; 4 days) was “do not differ significantly from control”, the “effect on the activity of warfarin (in words)” value [1] was “significantly enhance the effect of warfarin” and the “effect on blood clotting time and levels” value ([1]; 10 days) was “do not differ significantly from control”. The ALT ([2]; 4 days, 0.025 mpk) was 40.25, the AST ([2]; 4 days, 0.025 mpk) was 104.75 and the “Alk Phos” value ([2]; 4 days, 0.025 mpk) was 213.50. For the same compound, the Creat. ([2]; 4 days, 0.025 mpk) was 0.10, the LDH ([2]; 4 days, 0.025 mpk) was 758.75 and the ALT ([2]; 4 days, 0.25 mpk) was 45.00. The AST ([2]; 4 days, 0.25 mpk) was 135.33, the “Alk Phos” value ([2]; 4 days, 0.25 mpk) was 240.33 and the Creat. ([2]; 4 days, 0.25 mpk) was 0.10. For the same compound, the LDH ([2]; 4 days, 0.25 mpk) was 1496.33, the ALT ([2]; 4 days, 2.5 mpk) was 35.50 and the AST ([2]; 4 days, 2.5 mpk) was 114.75. The “Alk Phos” value ([2]; 4 days, 2.5 mpk) was 217.25, the Creat. ([2]; 4 days, 2.5 mpk) was 0.10 and the LDH ([2]; 4 days, 2.5 mpk) was 1026.50. For the same compound, the ALT ([2]; 10 days, 0.025 mpk) was 48.17, the AST ([2]; 10 days, 0.025 mpk) was 132.33 and the “Alk Phos” value ([2]; 10 days, 0.025 mpk) was 241.67. It also gave a Creat. ([2]; 10 days, 0.025 mpk) of 0.10, an LDH ([2]; 10 days, 0.025 mpk) of 1552.33 and an ALT ([2]; 10 days, 0.25 mpk) of 47.50. For the same compound, the AST ([2]; 10 days, 0.25 mpk) was 118.67, the “Alk Phos” value ([2]; 10 days, 0.25 mpk) was 274.17 and the Creat. ([2]; 10 days, 0.25 mpk) was 0.12. For the same compound, the LDH ([2]; 10 days, 0.25 mpk) was 1445.50, the ALT ([2]; 10 days, 2.5 mpk) was 48.50 and the AST ([2]; 10 days, 2.5 mpk) was 110.67. For the same compound, the “Alk Phos” value ([2]; 10 days, 2.5 mpk) was 264.17, the Creat. ([2]; 10 days, 2.5 mpk) was 0.15 and the LDH ([2]; 10 days, 2.5 mpk) was 1234.50. The “levels of Factor VII reduced by a factor compared to control” value [3, 8] was roughly 20, the “levels of Factor VII reduced by a factor relative to warfarin alone” value [3, 8] was 3 and the VII % ([3]; 4 days, 0.025 mpk) was 366.25%. The VII % ([3]; 4 days, 0.25 mpk) was 334.33%, the VII % ([3]; 4 days, 2.5 mpk) was 395.50% and the VII % ([3]; 10 days, 0.025 mpk) was 350.17%. For the same compound, the VII % ([3]; 10 days, 0.25 mpk) was 295.17%, the VII % ([3]; 10 days, 2.5 mpk, 2.5 mg/kg) was 325.33% and 286.83% and the “levels of Factor X reduced by a factor compared to control” value [4, 8] was roughly 20. For the same compound, the “levels of Factor X reduced by a factor relative to warfarin alone” value [4, 8] was 4, the X % ([4]; 4 days, 0.025 mpk) was 73.25% and the X % ([4]; 4 days, 0.25 mpk) was 61.00%. For the same compound, the X % ([4]; 4 days, 2.5 mpk) was 61.00%, the X % ([4]; 10 days, 0.025 mpk) was 64.17% and the X % ([4]; 10 days, 0.25 mpk) was 59.83%. The X % ([4]; 10 days, 2.5 mpk, 2.5 mg/kg) was 63.33% and 61.00%, the “prothrombin clotting time increase compared to control” value [5, 8] was “almost an order of magnitude” and the “prothrombin clotting time increased by a factor relative to warfarin alone” value [5, 8] was “over 4”. For the same compound, the “Pro Time” value ([5]; 4 days, 0.025 mpk) was 11.38, the “Pro Time” value ([5]; 4 days, 0.25 mpk) was 11.63 and the “Pro Time” value ([5]; 4 days, 2.5 mpk) was 12.73. The “Pro Time” value ([5]; 10 days, 0.025 mpk) was 11.58, the “Pro Time” value ([5]; 10 days, 0.25 mpk) was 11.55 and the “Pro Time” value ([5]; 10 days, 2.5 mpk, 2.5 mg/kg) was 11.57 and 11.63.
For `CC(=O)CC(c1ccccc1)c1c(O)c2ccccc2oc1=O` (stereo not drawn) [Warfarin, warfarin, reference compound], the INR maintained [6] is given as 2.6, the ALT ([2]; 4 days, 0.25 mpk) is given as 46.00 and the AST ([2]; 4 days, 0.25 mpk) is given as 123.25. For the same compound, the “Alk Phos” value ([2]; 4 days, 0.25 mpk) was 242.30, the Creat. ([2]; 4 days, 0.25 mpk) was 0.11 and the LDH ([2]; 4 days, 0.25 mpk) was 1168.88. For the same compound, the ALT ([2]; 10 days, 0.25 mpk) was 48.09, the AST ([2]; 10 days, 0.25 mpk) was 91.82 and the “Alk Phos” value ([2]; 10 days, 0.25 mpk) was 249.73. For the same compound, the Creat. ([2]; 10 days, 0.25 mpk) was 0.15, the LDH ([2]; 10 days, 0.25 mpk) was 626.18 and the LD50 [7] was 1 mg/kg/day. For the same compound, the VII % ([3]; 4 days, 0.25 mpk) was 29.54%, the VII % ([3]; 10 days, 0.25 mpk) was 56.18% and the X % ([4]; 4 days, 0.25 mpk) was 10.00%. The X % ([4]; 10 days, 0.25 mpk) was 14.85%, the “Pro Time” value ([5]; 4 days, 0.25 mpk) was 36.98 and the “Pro Time” value ([5]; 10 days, 0.25 mpk) was 24.38.
